The NIST ThermoML archive (doi:10.1016/j.jct.2019.07.007)
Numbers after ± are expanded uncertainties.

Experiment: wn = mass fraction of the nth substance listed
Conditions: 101 kPa, Liquid, Concentric cylinders viscometry

SMILES: CC(O)CN(C)C (centres undefined) [1-(dimethylamino)-2-propanol] + O
- viscosity (303.2 K, w1 = 0.3): 3.1 ± 0.25 mPa·s
- viscosity (303.2 K, w1 = 0.4): 4.56 ± 0.28 mPa·s
- viscosity (303.2 K, w1 = 0.5): 6.01 ± 0.25 mPa·s
- viscosity (313.2 K, w1 = 0.3): 2.18 ± 0.22 mPa·s
- viscosity (313.2 K, w1 = 0.4): 3.08 ± 0.22 mPa·s
- viscosity (313.2 K, w1 = 0.5): 3.96 ± 0.24 mPa·s
- viscosity (323.2 K, w1 = 0.3): 1.66 ± 0.21 mPa·s
- viscosity (323.2 K, w1 = 0.4): 2.19 ± 0.2 mPa·s
- viscosity (323.2 K, w1 = 0.5): 2.79 ± 0.21 mPa·s
